Values joined by “and” are separate entries in the source; they are usually repeats but may differ in a detail not shown here. Identical values can stand only once.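 Five concentrations, 48 hours, 96-well plates. Here, GI50 denotes the concentration required for 50% inhibition of growth. TGI denotes the concentration required for complete inhibition of growth.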
What was measured:
Test in all cases: DTP human tumour cell line panel, 48 h
[1] = tested on: MDA-N
[2] = tested on: IGROV1 ovarian
[3] = tested on: SN12C renal
[4] = tested on: HT29 colon
[5] = tested on: NCI-H522 lung
[6] = tested on: BT-549 breast
[7] = tested on: MOLT-4 leukemia
[8] = tested on: SK-MEL-5 melanoma
[9] = tested on: SK-MEL-2 melanoma
[10] = tested on: SR leukemia
[11] = tested on: SF-268 CNS

Compound	TGI [1]	TGI [2]	TGI [3]	TGI [4]	TGI [5]	TGI [6]	TGI [7]	TGI [8]	TGI [9]	TGI [10]	TGI [11]	GI50 [2]	GI50 [5]	GI50 [6]	GI50 [7]	GI50 [8]	GI50 [9]	GI50 [3]	GI50 [11]	GI50 [4]
O=c1[nH]c(=S)[nH]c2c1C(c1ccc([N+](=O)[O-])cc1)c1c([nH]c(=S)[nH]c1=O)O2	> 100 µM	> 100 µM	> 100 µM	> 100 µM	> 100 µM	> 100 µM	> 100 µM	> 100 µM	> 100 µM	–	–	–	–	–	–	–	–	–	–	–
Cc1ccc(NC(=O)CC2Sc3ccccc3NC2=O)cc1C (configuration not stated)	–	> 100 µM	> 100 µM	> 100 µM	> 100 µM	–	> 100 µM	> 100 µM	> 100 µM	> 100 µM	> 100 µM	–	–	–	–	–	–	–	–	–
COc1ccc2cc1Oc1ccc(cc1)C[C@H]1c3cc(c(OC)cc3CCN1C)Oc1c(O)c(OC)cc3c1[C@H](C2)N(C)CC3	–	65.8 µM	88.8 µM	55.2 µM	55.7 µM	–	26.4 µM	29.4 µM	48.5 µM	–	150 µM	–	–	–	–	–	–	–	–	–
O=C1c2cc3c(cc2-c2c1c1ccc(F)cc1c(=O)n2C[C@H](O)[C@@H](O)[C@H](O)CO)OCO3	–	> 100 µM	–	–	0.137 µM	0.492 µM	0.426 µM	0.183 µM	0.375 µM	–	–	0.302 µM	0.0167 µM	0.0687 µM	0.0334 µM	0.0568 µM	0.18 µM	–	–	–
C[C@]12CCC3C4=C(CCC3C1CCC2=O)C(=O)[C@H]1O[C@H]1C4=O (some centres not stated)	19.4 µM	4.74 µM	7.71 µM	3.45 µM	3.36 µM	4.83 µM	4.32 µM	23.9 µM	26.5 µM	–	5.32 µM	–	–	–	–	–	–	–	–	–
COc1ccc(-n2c(C)nc3ccc(NC(=S)Nc4ccccc4)cc3c2=O)cc1	–	> 100 µM	> 100 µM	> 100 µM	> 100 µM	> 100 µM	99.8 µM	> 100 µM	> 100 µM	> 100 µM	> 100 µM	–	–	–	–	–	–	–	–	–
Nc1nc2c(c(-c3cccc(Cl)c3)n1)COC/C2=C\c1cccc(Cl)c1	> 100 µM	> 100 µM	> 100 µM	> 100 µM	> 100 µM	> 100 µM	> 100 µM	> 100 µM	> 100 µM	–	> 100 µM	–	–	–	–	–	–	–	–	–
Cc1cc(Nc2ccc(S(=O)(=O)O)c3cc(S(=O)(=O)O)cc(S(=O)(=O)O)c23)c2ccccc2n1	> 100 µM	> 100 µM	> 100 µM	> 100 µM	> 100 µM	> 100 µM	> 100 µM	> 100 µM	> 100 µM	–	> 100 µM	–	–	–	–	–	–	–	–	–
O=C(NCc1ccccc1)c1n[nH][nH]c1=O	> 100 µM	> 100 µM	> 100 µM	> 100 µM	> 100 µM	> 100 µM	> 100 µM	> 100 µM	> 100 µM	–	> 100 µM	–	–	–	–	–	–	–	–	–
Nc1c(S(=O)(=O)O)cc2cc(S(=O)(=O)O)ccc2c1N=Nc1ccc(-c2ccc(N=Nc3c(N)c(S(=O)(=O)O)cc4cc(S(=O)(=O)O)ccc34)c(S(=O)(=O)O)c2)cc1	–	> 100 µM	> 100 µM	> 100 µM	> 100 µM	–	> 100 µM	> 100 µM	> 100 µM	–	> 100 µM	–	–	–	–	–	–	–	–	–
Cc1ccc(-c2cc(-c3ccco3)c(C#N)c(=S)n2C2OC(CO)C(O)C(O)C2O)cc1 (configuration not stated)	> 100 µM	74.5 µM and > 100 µM	> 100 µM	> 100 µM	> 100 µM	78.5 µM and > 100 µM	> 100 µM	18.2 µM and 30.8 µM	> 100 µM	–	> 100 µM	21.4 µM and 47.1 µM	29.5 µM and 65.4 µM	18.2 µM and 57.3 µM	7.35 µM and 18.7 µM	5.75 µM and 14.9 µM	39.3 µM and > 100 µM	20.6 µM and > 100 µM	44.8 µM	–
CC(=O)Oc1cccc2c1C(=O)CCCC2	–	> 100 µM	> 100 µM	> 100 µM	> 100 µM	> 100 µM	> 100 µM	> 100 µM	> 100 µM	> 100 µM	> 100 µM	–	–	–	–	–	–	–	–	–
CCC(=O)NC(Nc1cc(C)on1)(C(F)(F)F)C(F)(F)F	–	> 100 µM	> 100 µM	> 100 µM	> 100 µM	> 100 µM	> 100 µM	> 100 µM	> 100 µM	> 100 µM	> 100 µM	–	–	–	–	–	–	–	–	–
Cc1cc(C)nc(NS(=O)(=O)c2ccc(NC(=O)c3ccc4nc5ccccc5c(Nc5ccc(S(N)(=O)=O)cc5)c4c3)cc2)n1	–	> 100 µM	> 100 µM	> 100 µM	> 100 µM	> 100 µM	> 100 µM	> 100 µM	> 100 µM	> 100 µM	> 100 µM	–	–	–	–	–	–	–	–	–
COc1ccc2[nH]cc(/C=C(/C)c3ccncc3)c2c1	–	> 100 µM	> 100 µM	13.1 µM and 10.9 µM	21.9 µM and 7.16 µM	–	47.9 µM and > 100 µM	9.24 µM	> 100 µM and 55.9 µM	–	> 100 µM	–	3.99 µM	–	2.68 µM	–	58.1 µM	7.58 µM	–	3.64 µM

Reference: PubChem BioAssay (NCI)
